Experimental data: ChEMBL document CHEMBL4819073, “Synthesis and biological evaluation of phenothiazine derivative-containing hydroxamic acids as potent class II histone deacetylase inhibitors” (Eur J Med Chem, 2021)
The source made the active and inactive calls. The rule behind the calls is not given here.

Columns and labels:
Histone deacetylase 7 = molecular target: T1, Histone deacetylase 7 (Homo sapiens, UniProt Q8WUI4); assay: Inhibition of N-terminal GST-tagged human HDAC7 (518 to end residues) expressed in baculovirus-infected Sf9 cells using Boc Lys(TFA)-AMC as substrate preincubated for 5 mins followed by substrate addition and further incubated for 30 mins by fluorogenic assay
T1 sequence (Q8WUI4 whole entry): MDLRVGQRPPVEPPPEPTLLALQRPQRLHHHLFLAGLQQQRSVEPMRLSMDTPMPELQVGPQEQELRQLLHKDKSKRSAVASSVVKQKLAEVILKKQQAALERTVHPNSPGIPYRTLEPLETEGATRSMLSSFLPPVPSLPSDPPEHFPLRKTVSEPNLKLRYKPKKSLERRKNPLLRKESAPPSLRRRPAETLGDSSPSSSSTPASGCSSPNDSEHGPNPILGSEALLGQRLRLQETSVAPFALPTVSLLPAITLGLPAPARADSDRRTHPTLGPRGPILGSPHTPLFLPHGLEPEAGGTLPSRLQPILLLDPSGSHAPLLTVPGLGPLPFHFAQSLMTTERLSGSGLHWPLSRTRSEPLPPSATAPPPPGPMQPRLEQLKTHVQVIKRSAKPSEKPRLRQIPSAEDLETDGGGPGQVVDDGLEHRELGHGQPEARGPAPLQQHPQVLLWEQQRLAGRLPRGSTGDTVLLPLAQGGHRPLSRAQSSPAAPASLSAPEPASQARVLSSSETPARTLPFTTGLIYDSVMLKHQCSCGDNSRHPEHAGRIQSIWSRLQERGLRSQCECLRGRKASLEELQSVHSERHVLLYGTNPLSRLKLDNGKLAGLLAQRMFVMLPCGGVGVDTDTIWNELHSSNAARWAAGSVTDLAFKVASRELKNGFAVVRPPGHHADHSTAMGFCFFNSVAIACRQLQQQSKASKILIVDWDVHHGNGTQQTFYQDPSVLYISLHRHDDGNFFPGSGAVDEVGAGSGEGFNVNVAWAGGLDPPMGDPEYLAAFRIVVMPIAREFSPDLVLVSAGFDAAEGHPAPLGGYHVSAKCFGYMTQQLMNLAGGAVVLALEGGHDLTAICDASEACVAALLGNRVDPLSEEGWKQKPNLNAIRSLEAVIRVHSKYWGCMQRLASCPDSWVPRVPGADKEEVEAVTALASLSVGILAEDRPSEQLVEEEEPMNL

[1] = molecular target: T2, Protein deacetylase HDAC6 (Homo sapiens, UniProt Q9UBN7); assay: Inhibition of N-terminal GST-tagged full length human HDAC6 expressed in baculovirus-infected Sf9 cells using Boc-Lys (acetyl)-AMC as substrate preincubated for 5 mins followed by substrate addition and further incubated for 30 mins by fluorescence based assay
T2 sequence (Q9UBN7 whole entry): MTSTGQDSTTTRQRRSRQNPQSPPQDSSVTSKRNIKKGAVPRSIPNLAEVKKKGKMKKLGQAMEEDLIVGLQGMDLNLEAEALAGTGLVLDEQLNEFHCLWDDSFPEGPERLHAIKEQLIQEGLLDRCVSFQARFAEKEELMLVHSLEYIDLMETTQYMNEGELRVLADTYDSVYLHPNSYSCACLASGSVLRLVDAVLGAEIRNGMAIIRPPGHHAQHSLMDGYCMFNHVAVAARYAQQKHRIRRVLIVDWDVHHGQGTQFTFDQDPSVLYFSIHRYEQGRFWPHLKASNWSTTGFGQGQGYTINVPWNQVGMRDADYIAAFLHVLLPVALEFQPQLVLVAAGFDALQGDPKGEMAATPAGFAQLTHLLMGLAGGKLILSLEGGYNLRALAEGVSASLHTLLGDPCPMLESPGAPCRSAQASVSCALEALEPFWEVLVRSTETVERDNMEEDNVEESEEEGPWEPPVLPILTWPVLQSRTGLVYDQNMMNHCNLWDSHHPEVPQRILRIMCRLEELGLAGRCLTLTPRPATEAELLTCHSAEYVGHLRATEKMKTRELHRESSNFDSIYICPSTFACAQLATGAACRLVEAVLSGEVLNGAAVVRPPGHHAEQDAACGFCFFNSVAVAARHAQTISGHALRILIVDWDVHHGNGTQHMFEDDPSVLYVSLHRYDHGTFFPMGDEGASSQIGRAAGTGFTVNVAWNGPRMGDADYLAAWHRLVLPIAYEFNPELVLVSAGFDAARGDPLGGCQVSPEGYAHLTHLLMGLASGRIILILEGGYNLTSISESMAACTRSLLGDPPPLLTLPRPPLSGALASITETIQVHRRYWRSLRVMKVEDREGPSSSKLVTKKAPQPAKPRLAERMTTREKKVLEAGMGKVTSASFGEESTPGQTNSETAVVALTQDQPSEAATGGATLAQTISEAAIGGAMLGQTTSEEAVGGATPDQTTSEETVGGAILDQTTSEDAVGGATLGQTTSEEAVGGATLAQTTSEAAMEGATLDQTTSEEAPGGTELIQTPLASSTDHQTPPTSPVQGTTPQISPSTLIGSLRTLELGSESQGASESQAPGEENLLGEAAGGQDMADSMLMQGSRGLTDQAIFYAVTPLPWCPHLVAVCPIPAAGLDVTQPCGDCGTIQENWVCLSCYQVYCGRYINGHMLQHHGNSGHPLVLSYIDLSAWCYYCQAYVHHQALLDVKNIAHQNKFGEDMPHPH

Histone deacetylase 9 = Histone deacetylase 9 (Homo sapiens, UniProt Q9UKV0); assay: Inhibition of C-terminal His-tagged human HDAC9 (604 to 1066 residues) expressed in baculovirus-infected Sf9 cells using Boc Lys(TFA)-AMC as substrate preincubated for 5 mins followed by substrate addition and further incubated for 30 mins by fluorogenic assay
Histone deacetylase 4 = Histone deacetylase 4 (Homo sapiens, UniProt P56524); assay: Inhibition of N-terminal GST-tagged and C-terminal His-tagged human HDAC4 (627 to 1084 residues) expressed in baculovirus infected Sf9 cells using Boc Lys(TFA)-AMC as substrate preincubated for 5 mins followed by substrate addition and further incubated for 30 mins by fluorogenic assay
Histone deacetylase = assay: Inhibition of HDAC in human HeLa nuclear extracts using Boc-Lys (acetyl)-AMC as substrate preincubated for 5 mins followed by substrate addition and further incubated for 30 mins by fluorescence based assay; type: subcellular, Nucleus
N2a = assay: Cytotoxicity against mouse Neuro2a cells assessed as reduction in cell viability at 20 uM incubated for 24 hrs by Cell Titer-Glo 2.0 Luminescent cell assay; type: cell-based
[2] = molecular target: T3, Protein deacetylase HDAC6 (Mus musculus) (UniProt Q9Z2V5); assay: Inhibition of HDAC6 in mouse Neuro2a cells assessed as increase in acetylated alpha-tubulin levels incubated for 24 hrs by Western blot analysis; type: cell-based; settings: dose 0.039-20 µM
T3 sequence (whole entry): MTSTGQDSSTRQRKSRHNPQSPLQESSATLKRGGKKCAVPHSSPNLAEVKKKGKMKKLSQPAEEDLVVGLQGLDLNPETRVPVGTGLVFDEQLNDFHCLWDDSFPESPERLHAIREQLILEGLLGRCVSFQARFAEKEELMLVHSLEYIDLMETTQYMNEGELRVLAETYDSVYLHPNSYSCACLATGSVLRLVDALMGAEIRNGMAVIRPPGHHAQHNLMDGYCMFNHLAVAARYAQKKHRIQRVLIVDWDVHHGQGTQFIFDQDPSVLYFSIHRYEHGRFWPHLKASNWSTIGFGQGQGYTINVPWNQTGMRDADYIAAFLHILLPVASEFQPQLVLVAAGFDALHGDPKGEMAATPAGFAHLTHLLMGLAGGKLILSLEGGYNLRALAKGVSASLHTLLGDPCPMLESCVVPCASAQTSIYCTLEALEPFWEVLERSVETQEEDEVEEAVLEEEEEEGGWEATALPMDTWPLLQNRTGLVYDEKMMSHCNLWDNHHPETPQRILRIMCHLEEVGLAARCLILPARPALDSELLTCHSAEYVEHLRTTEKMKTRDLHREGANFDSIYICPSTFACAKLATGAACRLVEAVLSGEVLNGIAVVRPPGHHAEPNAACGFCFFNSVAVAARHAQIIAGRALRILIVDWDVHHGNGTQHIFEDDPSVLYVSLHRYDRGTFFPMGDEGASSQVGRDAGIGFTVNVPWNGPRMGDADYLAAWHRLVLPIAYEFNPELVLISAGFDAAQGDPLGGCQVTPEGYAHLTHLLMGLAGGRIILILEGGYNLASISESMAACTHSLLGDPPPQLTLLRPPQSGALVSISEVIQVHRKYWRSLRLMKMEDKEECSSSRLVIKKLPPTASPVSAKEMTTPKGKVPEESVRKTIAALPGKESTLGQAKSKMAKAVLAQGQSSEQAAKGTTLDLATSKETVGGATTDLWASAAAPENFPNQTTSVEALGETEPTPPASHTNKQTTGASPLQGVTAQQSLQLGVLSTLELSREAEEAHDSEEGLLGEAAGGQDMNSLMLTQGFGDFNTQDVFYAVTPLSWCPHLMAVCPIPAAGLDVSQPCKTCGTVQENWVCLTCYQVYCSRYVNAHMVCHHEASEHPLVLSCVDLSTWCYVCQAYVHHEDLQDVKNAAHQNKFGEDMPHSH

SH-SY5Y [3] = assay: Neuroprotective activity against H2O2-induced cell death in human SH-SY5Y cells assessed as increase in cell viability incubated for 3 hrs by MTT assay; type: functional, cell-based; settings: dose 2.5-40 µM
SH-SY5Y [4] = assay: Neuroprotective activity against H2O2-induced cell death in human SH-SY5Y cells assessed as cell viability at 40 uM incubated for 3 hrs by MTT assay; type: functional; settings: read-out: Activity
SH-SY5Y [5] = assay: Induction of neurite outgrowth in human SH-SY5Y cells incubated for 5 days by immunostaining analysis; type: functional, cell-based; settings: dose 1.25-5 µM, time 5.0 day
[6] = molecular target: Class 1 histone deacetylase (Mus musculus) (UniProt Q8VH37+O09106+P70288+O88895); assay: Inhibition of class I HDAC in mouse Neuro2a cells assessed as increase in acetylated histone H3 level at 0.039 to 20 uM incubated for 24 hrs by Western blot analysis; type: cell-based; settings: dose 0.039-20 µM
[7] = molecular target: Acetylcholinesterase (Homo sapiens) (UniProt P22303); assay: Inhibition of AChE (unknown origin)
SH-SY5Y [8] = assay: Induction of neurite outgrowth in human SH-SY5Y cells at 2.5 uM incubated for 5 days by immunostaining analysis; type: functional, cell-based; settings: time 5.0 day
[9] = molecular target: Amyloid-beta precursor protein (Homo sapiens) (UniProt P05067); assay: Inhibition of amyloid beta (1 to 42) (unknown origin) aggregation upto 10 uM by ThT fluorescence assay; settings: dose microM <=10

Chain of Histone deacetylase 9 (Q9UKV0 whole entry, the tested form may be a part): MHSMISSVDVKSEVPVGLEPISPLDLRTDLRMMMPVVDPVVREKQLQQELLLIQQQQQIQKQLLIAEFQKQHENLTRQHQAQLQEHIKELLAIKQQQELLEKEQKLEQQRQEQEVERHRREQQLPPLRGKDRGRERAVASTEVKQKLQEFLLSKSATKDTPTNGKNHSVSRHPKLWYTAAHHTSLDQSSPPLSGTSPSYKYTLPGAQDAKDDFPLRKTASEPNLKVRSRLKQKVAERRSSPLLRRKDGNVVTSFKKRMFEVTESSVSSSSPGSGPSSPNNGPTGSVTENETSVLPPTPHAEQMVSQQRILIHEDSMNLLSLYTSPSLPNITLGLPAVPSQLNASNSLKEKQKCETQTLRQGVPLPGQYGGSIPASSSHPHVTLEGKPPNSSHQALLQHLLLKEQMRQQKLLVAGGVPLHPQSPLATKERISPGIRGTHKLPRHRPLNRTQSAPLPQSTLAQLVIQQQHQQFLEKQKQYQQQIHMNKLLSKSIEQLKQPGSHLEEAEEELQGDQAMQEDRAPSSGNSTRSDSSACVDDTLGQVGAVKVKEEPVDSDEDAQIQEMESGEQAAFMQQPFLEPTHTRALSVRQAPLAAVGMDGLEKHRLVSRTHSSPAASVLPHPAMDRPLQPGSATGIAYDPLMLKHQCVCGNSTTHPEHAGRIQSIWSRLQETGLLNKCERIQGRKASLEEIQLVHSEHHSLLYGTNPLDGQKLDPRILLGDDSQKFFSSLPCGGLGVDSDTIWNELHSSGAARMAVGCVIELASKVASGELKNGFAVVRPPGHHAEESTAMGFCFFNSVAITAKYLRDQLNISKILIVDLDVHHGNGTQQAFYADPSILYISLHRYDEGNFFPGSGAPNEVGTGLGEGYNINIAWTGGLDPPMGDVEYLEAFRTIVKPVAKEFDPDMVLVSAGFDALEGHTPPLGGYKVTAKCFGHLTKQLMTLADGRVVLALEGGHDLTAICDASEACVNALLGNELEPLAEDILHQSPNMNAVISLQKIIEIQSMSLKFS
Chain of Histone deacetylase 4 (P56524 whole entry, the tested form may be a part): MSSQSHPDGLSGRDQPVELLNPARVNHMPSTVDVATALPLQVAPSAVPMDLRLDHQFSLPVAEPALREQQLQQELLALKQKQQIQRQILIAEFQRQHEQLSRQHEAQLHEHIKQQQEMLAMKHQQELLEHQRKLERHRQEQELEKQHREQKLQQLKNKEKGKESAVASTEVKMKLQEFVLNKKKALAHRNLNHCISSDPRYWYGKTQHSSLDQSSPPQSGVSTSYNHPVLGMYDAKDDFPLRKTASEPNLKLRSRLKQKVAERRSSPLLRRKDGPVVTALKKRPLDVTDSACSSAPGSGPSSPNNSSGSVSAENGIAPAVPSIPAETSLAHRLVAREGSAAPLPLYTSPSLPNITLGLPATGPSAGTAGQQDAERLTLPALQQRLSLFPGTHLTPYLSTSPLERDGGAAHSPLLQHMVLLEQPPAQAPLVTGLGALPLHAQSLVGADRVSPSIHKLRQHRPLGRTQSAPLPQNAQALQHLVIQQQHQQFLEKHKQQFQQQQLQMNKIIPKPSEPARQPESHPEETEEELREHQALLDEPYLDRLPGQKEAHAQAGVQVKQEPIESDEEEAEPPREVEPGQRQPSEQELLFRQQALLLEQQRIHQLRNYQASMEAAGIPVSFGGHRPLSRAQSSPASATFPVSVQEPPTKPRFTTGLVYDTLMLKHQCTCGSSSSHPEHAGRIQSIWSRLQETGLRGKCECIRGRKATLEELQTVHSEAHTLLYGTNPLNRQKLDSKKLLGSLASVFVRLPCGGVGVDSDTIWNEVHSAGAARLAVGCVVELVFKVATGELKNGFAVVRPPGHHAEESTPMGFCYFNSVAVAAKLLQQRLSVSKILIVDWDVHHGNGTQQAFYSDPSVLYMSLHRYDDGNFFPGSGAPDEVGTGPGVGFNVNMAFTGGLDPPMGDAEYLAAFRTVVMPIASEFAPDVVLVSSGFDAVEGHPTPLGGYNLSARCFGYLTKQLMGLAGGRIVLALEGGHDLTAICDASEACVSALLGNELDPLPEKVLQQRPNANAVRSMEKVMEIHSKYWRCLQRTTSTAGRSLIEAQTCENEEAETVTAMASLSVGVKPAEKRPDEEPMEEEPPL
Chain of Acetylcholinesterase (Homo sapiens) (P22303 whole entry): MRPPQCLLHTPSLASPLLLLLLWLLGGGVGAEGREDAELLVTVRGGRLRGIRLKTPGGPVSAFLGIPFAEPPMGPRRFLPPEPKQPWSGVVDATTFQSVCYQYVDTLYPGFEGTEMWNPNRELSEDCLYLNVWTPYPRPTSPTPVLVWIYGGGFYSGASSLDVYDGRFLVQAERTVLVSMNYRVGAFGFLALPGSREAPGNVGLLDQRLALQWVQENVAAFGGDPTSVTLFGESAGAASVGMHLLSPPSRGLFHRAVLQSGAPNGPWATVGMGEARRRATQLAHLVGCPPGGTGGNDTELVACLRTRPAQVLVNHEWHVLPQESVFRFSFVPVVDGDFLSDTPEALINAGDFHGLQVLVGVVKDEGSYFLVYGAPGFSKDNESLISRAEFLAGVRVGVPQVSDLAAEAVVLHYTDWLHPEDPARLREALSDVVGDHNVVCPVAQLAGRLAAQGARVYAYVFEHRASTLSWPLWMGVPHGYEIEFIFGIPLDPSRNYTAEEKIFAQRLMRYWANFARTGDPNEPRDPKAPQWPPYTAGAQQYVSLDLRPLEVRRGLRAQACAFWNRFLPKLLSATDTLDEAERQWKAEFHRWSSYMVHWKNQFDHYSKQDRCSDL
Chain of Class 1 histone deacetylase (Mus musculus) (O09106 whole entry, looked up): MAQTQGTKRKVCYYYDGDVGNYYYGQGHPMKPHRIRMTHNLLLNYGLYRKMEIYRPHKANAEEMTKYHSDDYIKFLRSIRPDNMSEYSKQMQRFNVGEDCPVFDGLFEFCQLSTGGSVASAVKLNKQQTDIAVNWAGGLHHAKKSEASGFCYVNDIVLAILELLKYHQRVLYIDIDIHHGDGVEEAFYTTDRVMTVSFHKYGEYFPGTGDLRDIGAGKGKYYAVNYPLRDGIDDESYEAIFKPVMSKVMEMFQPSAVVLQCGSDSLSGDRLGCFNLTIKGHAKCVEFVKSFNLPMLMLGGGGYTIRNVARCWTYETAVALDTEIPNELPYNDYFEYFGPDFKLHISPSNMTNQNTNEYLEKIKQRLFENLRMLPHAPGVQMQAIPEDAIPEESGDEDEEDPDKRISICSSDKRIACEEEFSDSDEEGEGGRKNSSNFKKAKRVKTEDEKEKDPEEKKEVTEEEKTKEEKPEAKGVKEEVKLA
Chain of Class 1 histone deacetylase (Mus musculus) (O88895 whole entry, looked up): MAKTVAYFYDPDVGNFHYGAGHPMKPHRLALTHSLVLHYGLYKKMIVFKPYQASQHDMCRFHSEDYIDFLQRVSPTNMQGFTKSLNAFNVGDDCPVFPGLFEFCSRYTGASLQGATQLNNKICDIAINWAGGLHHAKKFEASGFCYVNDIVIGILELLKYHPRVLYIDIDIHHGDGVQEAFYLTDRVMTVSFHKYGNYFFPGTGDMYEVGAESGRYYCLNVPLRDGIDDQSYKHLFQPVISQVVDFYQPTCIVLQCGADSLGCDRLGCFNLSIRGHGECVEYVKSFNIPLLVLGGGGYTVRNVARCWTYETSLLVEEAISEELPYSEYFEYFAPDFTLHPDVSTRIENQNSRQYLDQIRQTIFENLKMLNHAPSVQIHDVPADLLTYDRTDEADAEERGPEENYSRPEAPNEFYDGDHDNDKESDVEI
Chain of Class 1 histone deacetylase (Mus musculus) (P70288 whole entry, looked up): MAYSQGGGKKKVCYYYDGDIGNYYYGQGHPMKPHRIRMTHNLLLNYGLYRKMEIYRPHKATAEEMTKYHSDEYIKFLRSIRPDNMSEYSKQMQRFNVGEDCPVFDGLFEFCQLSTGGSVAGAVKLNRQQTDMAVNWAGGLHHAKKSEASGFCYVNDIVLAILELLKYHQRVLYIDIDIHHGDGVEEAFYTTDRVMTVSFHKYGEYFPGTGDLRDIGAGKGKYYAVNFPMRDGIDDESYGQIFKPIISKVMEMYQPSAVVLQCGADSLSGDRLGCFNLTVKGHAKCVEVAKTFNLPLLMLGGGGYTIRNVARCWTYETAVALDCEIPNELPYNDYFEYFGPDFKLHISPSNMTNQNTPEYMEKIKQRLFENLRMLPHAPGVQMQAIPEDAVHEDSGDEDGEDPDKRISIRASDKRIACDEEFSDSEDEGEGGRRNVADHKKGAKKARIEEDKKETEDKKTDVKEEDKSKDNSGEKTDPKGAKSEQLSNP
Chain of Class 1 histone deacetylase (Mus musculus) (Q8VH37 whole entry, looked up): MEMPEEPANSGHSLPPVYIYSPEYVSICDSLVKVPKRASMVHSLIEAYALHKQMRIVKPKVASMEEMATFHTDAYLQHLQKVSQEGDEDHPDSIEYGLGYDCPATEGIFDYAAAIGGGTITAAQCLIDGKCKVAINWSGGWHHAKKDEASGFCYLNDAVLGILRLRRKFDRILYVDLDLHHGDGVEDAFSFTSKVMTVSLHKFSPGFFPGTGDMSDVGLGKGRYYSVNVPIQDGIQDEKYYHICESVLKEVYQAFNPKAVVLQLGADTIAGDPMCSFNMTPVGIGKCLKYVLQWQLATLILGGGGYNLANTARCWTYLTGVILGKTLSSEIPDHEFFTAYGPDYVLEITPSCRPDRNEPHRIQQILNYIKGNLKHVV

SMILES | IC50 (Histone deacetylase 7) [µM] | IC50 [1] [µM] | IC50 (Histone deacetylase 9) [µM] | IC50 (Histone deacetylase 4) [µM] | IC50 (Histone deacetylase) [µM] | other results
NC(=O)c1ccc2c(c1)N(Cc1ccc(C(=O)NO)cc1)c1ccccc1[S+]2[O-] (configuration not stated) | 9.38 | 0.0143 | 4.2 | 12.9 | 1.69 | 
O=C(NO)c1ccc(CN2c3ccccc3[S+]([O-])c3ccccc32)cc1 | 5.15 | 0.0205 | 27.6 | 6.62 | 2.76 | 
COc1ccc2c(c1)N(Cc1ccc(C(=O)NO)cc1)c1ccccc1S2 | 1.55 | 0.0189 | 29.7 | 4.76 | 0.35 | 
O=C(NO)c1ccc(CN2c3ccccc3Sc3ccc(C(F)(F)F)cc32)cc1 | 2.24 | 0.0142 | 2.58 | 7.59 | 0.84 | 
O=C(NO)c1ccc(Nc2c3ccccc3nc3ccc(Br)cc23)cc1 |  |  |  |  | 0.16 | 
O=C(NO)c1ccc(CN2c3ccccc3Sc3ccc(Cl)cc32)cc1 | 1.36 | 0.0095 | 0.35 | 3.6 | 0.29 | 
O=C(NO)c1ccc(CN2c3ccccc3Sc3ccccc32)cc1 |  |  |  |  |  | Activity (N2a): Non-Toxic; inhibition [2]: Dose-Dependent Effect
CSc1ccc2c(c1)N(Cc1ccc(C(=O)NO)cc1)c1ccccc1[S+]2[O-] (configuration not stated) | > 40 | 0.0359 | 0.72 | > 40 | 1.68 | 
NC(=O)c1ccc2c(c1)N(Cc1ccc(C(=O)NO)cc1)c1ccccc1S2 |  |  |  |  |  | Activity (N2a): Non-Toxic; Activity (SH-SY5Y [3]): Dose-Dependent Effect; viability at 40 µM (SH-SY5Y [4]): 70.8%; inhibition [2]: Dose-Dependent Effect; Activity (SH-SY5Y [5]): Dose-Dependent Effect; inhibition [6]: Active; inhibition [7]: inactive; Activity (SH-SY5Y [8]): Active; inhibition [9]: inactive
NC(=O)c1ccc2c(c1)N(Cc1ccc(/C=C/C(=O)NO)cc1)c1ccccc1S2 | 5.74 | 0.037 | 8.27 | 3.26 | 0.02 | 
CSc1ccc2c(c1)N(Cc1ccc(C(=O)NO)cc1)c1ccccc1S2 | 2.25 | 0.0094 | 3.26 | 5.8 | 0.68 | 
C/C(=N\O)c1ccc2c(c1)N(Cc1ccc(C(=O)NO)cc1)c1ccccc1S2 | 1.09 | 0.0108 | 4.34 | 3.85 | 0.33 | 
